Values quoted from earlier work in US20180000940A1, “INJECTABLE FORMULATIONS OF PARACETAMOL” (TROIKAA PHARMACEUTICALS LIMITED, priority 2014, published 2018).

Conditions: solution no 20: 30% propylene-glycol, 40% polyethylene-glycol 400, 30% water; 20° C.

Amount of paracetamol that can be dissolved: about 200 mg/ml
Structure (SMILES): CC(=O)Nc1ccc(O)cc1 [paracetamol, Paracetamol]
